From patent US9504672B2, “Compositions and methods for treating or preventing pneumovirus infection and associated diseases” (MicroDose Therapeutx, Inc., priority 2012, dated 2016)
Values after ≈ are worked out from the molar mass of the structure shown.

Assays:
[1] = Slurry of equal mixture of six phases in 75/25 acetone-water (PXRD); assay type: physicochemical; conditions: 25° C., 12 days
Experimental: An equal powder mixture of six known phases (P-2, P-3, P-4, P-6, P-7 and P-8), 50 mg each were stirred in 75/25 acetone-water solvent (50 mL) at 25° C. over 12 days.

[2] = Thermodynamic relationship (hierarchy) of P-2 and P-3 crystal forms; assay type: physicochemical; conditions: sufficient activity of ethanol, preferably above 0.3
Description: FIG. 17 illustrates the thermodynamic relationship (hierarchy) of the P-2 and P-3 families of crystal forms.

physchem = conditions: organic solvent or mixture, thermodynamic from solid, equilibrium solubility
Experimental: Equilibrium solubility of different API forms in aqueous ethanol: This solubility was determined for P-2 and P-3 crystal forms using slurry equilibration and solution concentration measurement with HPLC.

RSV = conditions: background statement, cited from earlier work
[3] = human, in vivo
Description: In summary, the MicroDose Inhaler operation comprises the drug powder contained in a protective blister until delivery. The blister is pierced externally and then placed in contact with a piezoelectric vibrator within the MicroDose Inhaler. When the patient inhales, an airflow sensor automatically turns on the piezo which provides energy to deaggregate the particles of powder and aerosolizes them into the inhalation airstream, providing synchronized delivery. The MicroDose Inhaler was triggered by pressure drop and programmed to produce a series of brief aerosol bursts of predetermined duration within the range of 0.1 to 2.0 seconds, preferably 0.1 seconds, early during each inhalation cycle and for 16 consecutive breaths. The studies were conducted as follows:
Study 3: A Double-Blind, Randomized, 3 Period Crossover, Single Ascending Dose Study to Assess the Safety and Tolerability of Inhaled MDT-637 P3 in Subjects with Intermittent or Mild-to-Moderate Persistent Asthma (Asthma Trial)
The primary objective of Study 3 was to assess the safety and tolerability of MDT-637 P3 when inhaled by subjects with Intermittent, or Mild-to-Moderate Persistent, Asthma. A secondary objective of Study 3 was to determine the rate and extent of systemic absorption of MDT-637 and trough nasal wash MDT-637 drug concentrations following dry powder inhalation dosing.
Each subject was dosed on 3 separate days during the study. Each subject received an initial dose of placebo (Period 1), followed by random allocation at Period 2 to a single dose of nasally inhaled MDT-637 P3 or double blind placebo. After an observation and furlough period, subjects returned for Period 3 to receive three doses of study drug (MDT-637 P3 or placebo) over a single day as listed below. The study consisted of 5 visits: Visit 1 (Screening), Visits 2, 3 and 4 (Dosing), and Visit 5 (Follow up); subjects were furloughed from the clinic for 6 up to 14 days between Visits 3 and 4 and 7-8 days between Visit 4 and 5. Subjects who met all of the inclusion criteria and none of the exclusion criteria (Table 19, FIG. 29) at Visit 1 were eligible to return for Visit 2 within 42 days of screening. Subjects were admitted to the study center twice, once for Visit 2 and again for Visit 4. Visit 5, was a safety follow up (outpatient) visit.
The doses of MDT-637 P3 were determined based on previous clinical experience in Study 1. Both placebo and active were administered as a dry powder for nasal inhalation via a face mask using a MicroDose Inhaler device. At Visit 2, all 10 patients were dosed with placebo Once Daily. At Visit 3, subjects were randomly allocated so that 8 subjects were dosed with MDT-637 P3 Once Daily 66 mcg and 2 subjects received double blind placebo. At Visit 4, subjects were again randomly allocated so that 8 subjects were dosed with MDT-637 TID 132 mcg and 2 subjects received double blind placebo.
Pharmacokinetic variables (Cmax, Tmax, AUC, T1/2) were evaluated based on blood samples drawn at Visit 4.

[4] = human, in vivo; remark: listed apart in the source
Experimental: The study consisted of 3 visits: Visit 1 (Screening), Visit 2 (Dosing) and Visit 3 (Follow up); subjects furloughed from the clinic between Visits 2 and 3.
Both active and matched placebo were administered via face mask inhalation from a proprietary delivery system (MicroDose inhaler).
Single doses were administered in the morning. TID doses will be administered at 6 hour intervals, with the 1st of the 3 doses administered in the morning.
Pharmacokinetic variables (Cmax, Tmax, AUC, T1/2) were evaluated based on blood samples drawn at Visit 2.

[5] = human, in vivo; remark: listed apart in the source
Experimental: Subjects were enrolled in cohorts of 12 subjects. […] The study consisted of 3 visits: Visit 1 (Screening), Visit 2 (Dosing), Visit 3 (Follow up) and subjects remained at the study site for pharmacokinetic (PK) sampling, spirometry, and safety assessments. […] Day 1 was the first day of dosing and Day 10 was the final day of dosing, following which subjects remained at the study site for 24 hours following the last dose for PK sampling and spirometry. Visit 3 was a follow-up visit, 7 to 10 days after the last dose. Cohorts were dosed as follows:
The first doses for twice daily (BID) and three times daily (TID) were administered in the morning, starting at approximately 0700 hours on each day of dosing. BID doses were administered at 12 hour intervals and TID doses were administered at 6 hour intervals each dose day.
Pharmacokinetic endpoints (Cmax, Tmax, AUC, T1/2) and dose proportionality was assessed based on a limited number of plasma samples following the first dose on Day 1 and last dose on Day 10
Pharmacokinetic variables (Cmax, Tmax, AUC, T1/2) were evaluated based on blood samples drawn following first dose (Days 1-2) and last dose (Days 10-11).

Cc1nnnn1/N=C/c1ccc(O)c(C(c2ccc(O)cc2)c2cc(/C=N/n3nnnc3C)ccc2O)c1 [P-4, phenol, 2,2′-[(4-hydroxyphenyl)methylene]bis[4-[[(5-methyl-1H-tetrazol-1-yl)imino]methyl]]]
form conversion / stability in six-phase slurry [1]: convert to P-2 hydrate

Cc1nnnn1/N=C/c1ccc(O)c(C(c2ccc(O)cc2)c2cc(/C=N/n3nnnc3C)ccc2O)c1 [P-8, phenol, 2,2′-[(4-hydroxyphenyl)methylene]bis[4-[[(5-methyl-1H-tetrazol-1-yl)imino]methyl]]]
form conversion / stability in six-phase slurry [1]: convert to P-2 hydrate

Cc1nnnn1/N=C/c1ccc(O)c(C(c2ccc(O)cc2)c2cc(/C=N/n3nnnc3C)ccc2O)c1 [P-7, phenol, 2,2′-[(4-hydroxyphenyl)methylene]bis[4-[[(5-methyl-1H-tetrazol-1-yl)imino]methyl]]]
form conversion / stability in six-phase slurry [1]: convert to P-2 hydrate

Cc1nnnn1/N=C/c1ccc(O)c(C(c2ccc(O)cc2)c2cc(/C=N/n3nnnc3C)ccc2O)c1 [P-3 ethanolate, phenol, 2,2′-[(4-hydroxyphenyl)methylene]bis[4-[[(5-methyl-1H-tetrazol-1-yl)imino]methyl]]]
thermodynamic stability [2]: most stable crystal form
solubility thermodynamic (physchem): 240 µg/mL (≈ 470 µM)

Cc1nnnn1/N=C/c1ccc(O)c(C(c2ccc(O)cc2)c2cc(/C=N/n3nnnc3C)ccc2O)c1 [MDT-637, phenol, 2,2′-[(4-hydroxyphenyl)methylene]bis[4-[[(5-methyl-1H-tetrazol-1-yl)imino]methyl]]]
potency relative to ribavirin (RSV): 40,000 times
reduction of RSV viral count (RSV; pre- and post-infection): effective in reducing RSV viral count both pre- and post-infection
clinically significant changes in pulmonary function / pulmonary AEs [3]: no clinically significant changes in pulmonary function or reports of pulmonary adverse events
clinically significant changes in labs, vital signs, ECGs, physical exams [4]: no clinically significant changes in pulmonary function, ECG, laboratory values vitals or physical examination
changes in pulmonary function / pulmonary AEs (serial spirometry) [5]: no significant changes were observed in pulmonary function or reports of pulmonary adverse events

Cc1nnnn1/N=C/c1ccc(O)c(C(c2ccc(O)cc2)c2cc(/C=N/n3nnnc3C)ccc2O)c1 [P-6, phenol, 2,2′-[(4-hydroxyphenyl)methylene]bis[4-[[(5-methyl-1H-tetrazol-1-yl)imino]methyl]]]
form conversion / stability in six-phase slurry [1]: convert to P-2 hydrate
